Results as given in patent US20260306500A1, “METHOD OF INHIBITING ADENOSINE TRIPHOSPHATE SECRETION, METHOD OF INHIBITING HEPATIC STELLATE CELL ACTIVATION, METHOD OF DEACTIVATING HEPATIC STELLATE CELL, METHOD OF TREATING HEPATIC FIBROSIS, METHOD OF TREATING NON-ALCOHOLIC STEATOHEPATITIS, AND METHOD OF TREATING PSORIASIS” (Kurume University, priority 2023, published 2026).

Assays:
[1] = system: human epidermal keratinocytes; experiment: ATP secretion from human epidermal keratinocytes promoted by ionomycin; assay type: cell-based; conditions: for ATP secretion level relative to control solution (RLU ratio): 1 μM imeglimin, N=3 (FIG. 4)
Description: Human epidermal keratinocytes (Cryopreserved HEK, Lot 1758, Cell Applications Inc.) were cultured using an Epivita Keratinocyte Growth Medium Kit according to the manufacturer's instructions. The procedure was as follows. A supplement medium was added to a hydrocortisone-containing basal medium included in the medium preparation kit to prepare a complete medium. The medium in the dish was removed by aspiration. The cells were washed with 5 ml of BSS (Gbco), and then the BSS was removed by aspiration. After addition of 5 to 6 ml of trypsin/EDTA solution (Gbco), the dish was incubated at 37° C. for 2 minutes. After addition of 5 ml of trypsin neutralization solution, the resulting cell suspension was transferred into two 15-ml Falcon tubes, and centrifuged at 200×g for 5 minutes. The supernatant was removed by aspiration, and the pelleted cell cluster was suspended in 2 ml of the medium at 4.5×10^5 cells/ml. An aliquot of the resulting cell suspension was cryopreserved, while another aliquot was cultured and subjected to measurement.
ATP secretion by human epidermal keratinocytes (hereinafter referred to as “keratinocytes”) was measured. Regarding control solutions, Krebs-Ringer HEPES supplemented with 0.2% BSA and 25 mM glucose (hereinafter also referred to as “Krebs/Iono(−)”) was used as a negative control, and a solution prepared by adding 5 μM ionomycin to this solution (hereinafter also referred to as “Krebs/Iono(+)”) was used as a positive control for ATP secretion. Ionomycin is a Ca^2+ ionophore. Addition of ionomycin to cells is known to promote influx of extracellular Ca^2+ into the cells to increase the intracellular Ca^2+ concentration, resulting in enhancement of ATP secretion. Test solutions were prepared by adding clodronate to Krebs/Iono(−) or Krebs/Iono(+) to a final concentration of 0.1 μM (hereinafter also referred to as “Clo/Iono(−)” or “Clo/Iono(+)”, respectively) (N=3).
Keratinocytes were cultured at 2.5×10^4 cells/well in a 24-well plate at 37° C. in 5% CO2 for 4 days. The medium was removed by aspiration, replaced with Krebs/Iono(−) or Clo/Iono(−), and incubated at 37° C. for 6 hours. These solutions were then removed by aspiration, and the content of each well incubated with Krebs/Iono(−) was replaced with 300 μl of a control solution (Krebs/Iono(−) or Krebs/Iono(+)), while the content of each well incubated with Clo/Iono(−) was replaced with 300 μl of a test solution (Clo/Iono(−) or Clo/Iono(+)). After further incubation at 37° C. for 20 minutes, 200 μl of the supernatant was collected. The collected supernatant was immediately treated on a heat block at 95° C. for 10 minutes, to inactivate ectonucleotidase. ATP in the supernatant was quantified using a Dojindo ATP assay kit−Luminescence (manufactured by Dojindo Laboratories).
Keratinocytes were cultured in the same manner as in Example 1, and ATP secretion from the keratinocytes was measured. Krebs/Iono(−), or a solution prepared by adding 10 μM imeglimin, 0.1 μM eicosapentaenoic acid (EPA), 1 μM EPA, or 10 μM clodronate to Krebs/Iono(−) was used (N=4).
After culturing keratinocytes, the medium was removed by aspiration, and replaced with Krebs/Iono(−), or Krebs/Iono(−) supplemented with 10 μM imeglimin, 0.1 μM EPA, 1 μM EPA, or 10 μM clodronate, followed by incubation for 6 hours. Subsequently, the solution was replaced with either a control solution (Krebs/Iono(−) or Krebs/Iono(+)) or a test solution (Krebs/Iono(+) supplemented with 10 μM imeglimin, 0.1 μM EPA, 1 μM EPA, or 10 μM clodronate), followed by incubation at 37° C. for 20 minutes and then collection of 200 μl of the supernatant. The collected supernatant was immediately treated on a heat block at 95° C. for 10 minutes to inactivate ectonucleotidase. ATP in the supernatant was quantified using a Dojindo ATP assay kit—Luminescence (manufactured by Dojindo Laboratories). […]

[2] = system: human epidermal keratinocytes; experiment: ATP secretion from keratinocytes upon LPS stimulation; assay type: cell-based; conditions: 18 hours, 10 μg/ml LPS, N=8 (FIG. 8)
Description: Keratinocytes were cultured in the same manner as in Example 1. Keratinocytes were cultured at 2.5×10^4 cells/well in a 24-well plate at 37° C. in 5% CO2 for 4 days. The medium was replaced with a test solution (Hanks' balanced salt solution (HBSS) (manufactured by Gibco) supplemented with imeglimin, metformin, or clodronate), and then incubation was performed at 37° C. in 5% CO2 for 18 hours. Thereafter, LPS (10 μg/ml) was added thereto, and incubation was further carried out for 10 minutes, followed by collection of 200 μl of the supernatant. The supernatant was immediately treated on a heat block at 95° C. for 10 minutes, and ATP in the supernatant was quantified using an ATP Assay Kit−Luminescence (manufactured by Dojindo) (N=8).

[3] = system: macrophages (THP-1 cells); experiment: ATP secretion from macrophages differentiated from THP-1 cells upon LPS stimulation; assay type: cell-based, human; conditions: 10 μM, 10 μg/ml LPS, N=10 (FIG. 9)
Description: Human acute monocytic leukemia cells (THP-1 cells (ACTT)) were cultured in accordance with Reference D. THP-1 cells were cultured in RPMI1640 medium supplemented with 10% fetal bovine serum (FBS), 100 units/ml penicillin, and 100 μg/ml streptomycin at 37° C. in 5% CO2 for 1 day. Further, THP-1 cells were cultured in RPMI1640 medium supplemented with 1 μg/ml Escherichia coli serotype 055:B5 (manufactured by Sigma-Aldrich) and 1000 units/ml mouse IFN-γ (manufactured by R&D Systems) at 37° C. in 5% CO2 for 1 day, to allow differentiation into macrophages.
The differentiated macrophages were cultured in RPMI1640 medium supplemented with 1 mg/ml Escherichia coli serotype 055:B5 (manufactured by Sigma-Aldrich) and 1000 units/ml mouse IFN-γ (manufactured by R&D Systems) at 2.5×10^4 cells/well in a 24-well plate at 37° C. in 5% CO2 for 4 days. The medium was replaced with HBSS (manufactured by Gibco) supplemented with imeglimin or clodronate), and then LPS (10 μg/ml) was added thereto, followed by further performing incubation for 10 minutes and then collection of 200 μl of the supernatant. The supernatant was immediately treated on a heat block at 95° C. for 10 minutes, and ATP in the supernatant was quantified using an ATP assay kit−Luminescence (manufactured by Dojindo) (N=10).

C=C(OP(=O)(O)O)C(=O)O [PEP, phosphoenolpyruvic acid]
ATP secretion inhibitory effect ([1]; PEP at not less than 3 mM (data not shown)): relatively strong ATP secretion inhibitory effect

O=P(O)(O)C(Cl)(Cl)P(=O)(O)O [clodronate]
ATP secretion level promoted by ionomycin ([1]; 0.1 μM clodronate, 6 h preincubation, 5 μM ionomycin, N=3 (FIG. 1)): almost the same as those in Krebs/Iono(−) and Clo/Iono(−) | LPS-stimulated ATP secretion ([2]; 10 μM): almost completely inhibited | LPS-induced ATP secretion from macrophages [3]: strongly inhibited

C[C@@H]1N=C(N)NC(N(C)C)=N1 [imeglimin]
ATP secretion inhibitory effect at low concentration ([1]; 0.1 μM, 6 h preincubation, ionomycin): exhibit an ATP secretion inhibitory effect | ATP secretion level relative to control solution (RLU ratio) ([1]; incubation time 2 hours, ionomycin): about 85% | ATP secretion level relative to control solution (RLU ratio) ([1]; incubation time 6 hours, ionomycin): about 40% | ATP secretion inhibitory effect, comparison ([1]; 10 μM imeglimin vs 1 μM EPA and 10 μM clodronate): comparable to those of 1 μM EPA and 10 μM clodronate | ATP secretion inhibitory effect relative to metformin ([1]; 0.1, 1, 10 μM, 6 h preincubation, N=3 (FIG. 3)): slightly higher ATP secretion inhibitory effect than metformin | LPS-stimulated ATP secretion ([2]; 1 μM): almost completely inhibited | LPS-stimulated ATP secretion ([2]; 10 μM): almost completely inhibited | LPS-induced ATP secretion from macrophages [3]: strongly inhibited
